Measurements reported in patent publication US9826761B2, “Compositions and methods for mitigating dietary sulfur in animals” (SarTec Corporation, priority 2008, dated 2017).

Tests used:
[1] = Titration of approx. 200 mM sulfide in 24 hour old rumen fluid with 1 M MnCl2, BaCl2 or CaCl2, silver/sulfide electrode; parameters: species or system Holstein cows
Experimental: 24 hour old undiluted rumen fluid from rumen fistulated Holstein cows was obtained. 4 ml of Na2S in water (approximately 1 M) was added to 16 ml of the rumen fluid. The final concentration of sulfide ion in the rumen fluid was approximately 200 mM. […] The progress of the reaction was followed using the same silver/sulfide electrode set-up described above (Orion, Ion Plus Silver/Sulfide 9616BNWP).

[2] = Precipitating activity: rumen fluid containing manganese compound titrated with 1.0M Na2S, silver/sulfide electrode; parameters: species or system Holstein cows; settings: 100 mM MnO2(IV) in rumen fluid
Experimental: Next, 0.28 g of MnO(II) was placed in a 100 ml beaker and 20 ml of rumen fluid was added. Then 0.17 g of MnO2(IV) was placed in 100 ml beaker and 20 ml of rumen fluid was added. Each of these compositions, in addition to a rumen fluid control, was then titrated with a 1.0M solution of Na2S. The progress of the reaction was followed using the same silver/sulfide electrode set-up described above (Orion, Ion Plus Silver/Sulfide 9616BNWP).

[Ba+2].[Cl-].[Cl-] [BaCl2]
mVolts ([1]; Volume 0.0 of 1.0M BaCl2, ~200 mM sulfide): 942.6 mVolts
mVolts ([1]; Volume 0.3 of 1.0M BaCl2, ~200 mM sulfide): 943.7 mVolts
mVolts ([1]; Volume 0.4 of 1.0M BaCl2, ~200 mM sulfide): 943.3 mVolts
mVolts ([1]; Volume 0.6 of 1.0M BaCl2, ~200 mM sulfide): 942.7 mVolts
mVolts ([1]; Volume 0.8 of 1.0M BaCl2, ~200 mM sulfide): 941.3 mVolts
mVolts ([1]; Volume 1.0 of 1.0M BaCl2, ~200 mM sulfide): 927.0 mVolts
mVolts ([1]; Volume 1.2 of 1.0M BaCl2, ~200 mM sulfide): 925.6 mVolts
mVolts ([1]; Volume 1.4 of 1.0M BaCl2, ~200 mM sulfide): 923.3 mVolts
mVolts ([1]; Volume 1.6 of 1.0M BaCl2, ~200 mM sulfide): 922.5 mVolts
mVolts ([1]; Volume 1.8 of 1.0M BaCl2, ~200 mM sulfide): 921.5 mVolts
mVolts ([1]; Volume 2.0 of 1.0M BaCl2, ~200 mM sulfide): 920.9 mVolts
mVolts ([1]; Volume 2.2 of 1.0M BaCl2, ~200 mM sulfide): 920.5 mVolts
mVolts ([1]; Volume 2.4 of 1.0M BaCl2, ~200 mM sulfide): 920.0 mVolts
mVolts ([1]; Volume 2.6 of 1.0M BaCl2, ~200 mM sulfide): 919.7 mVolts
mVolts ([1]; Volume 2.8 of 1.0M BaCl2, ~200 mM sulfide): 918.8 mVolts
mVolts ([1]; Volume 3.0 of 1.0M BaCl2, ~200 mM sulfide): 918.1 mVolts
mVolts ([1]; Volume 3.2 of 1.0M BaCl2, ~200 mM sulfide): 917.7 mVolts
mVolts ([1]; Volume 3.4 of 1.0M BaCl2, ~200 mM sulfide): 917.2 mVolts
mVolts ([1]; Volume 3.6 of 1.0M BaCl2, ~200 mM sulfide): 916.7 mVolts
mVolts ([1]; Volume 3.8 of 1.0M BaCl2, ~200 mM sulfide): 916.0 mVolts
mVolts ([1]; Volume 4.0 of 1.0M BaCl2, ~200 mM sulfide): 915.6 mVolts
mVolts ([1]; Volume 4.2 of 1.0M BaCl2, ~200 mM sulfide): 915.0 mVolts
mVolts ([1]; Volume 4.4 of 1.0M BaCl2, ~200 mM sulfide): 914.8 mVolts
mVolts ([1]; Volume 4.6 of 1.0M BaCl2, ~200 mM sulfide): 914.4 mVolts
mVolts ([1]; Volume 4.8 of 1.0M BaCl2, ~200 mM sulfide): 913.9 mVolts
mVolts ([1]; Volume 5.0 of 1.0M BaCl2, ~200 mM sulfide): 913.6 mVolts
mVolts ([1]; Volume 5.2 of 1.0M BaCl2, ~200 mM sulfide): 913.0 mVolts
mVolts ([1]; Volume 5.4 of 1.0M BaCl2, ~200 mM sulfide): 913.0 mVolts
mVolts ([1]; Volume 5.6 of 1.0M BaCl2, ~200 mM sulfide): 912.7 mVolts
mVolts ([1]; Volume 5.8 of 1.0M BaCl2, ~200 mM sulfide): 912.0 mVolts
mVolts ([1]; Volume 6.0 of 1.0M BaCl2, ~200 mM sulfide): 911.7 mVolts
mVolts ([1]; Volume 6.5 of 1.0M BaCl2, ~200 mM sulfide): 910.7 mVolts
mVolts ([1]; Volume 7.0 of 1.0M BaCl2, ~200 mM sulfide): 910.8 mVolts
mVolts ([1]; Volume 7.5 of 1.0M BaCl2, ~200 mM sulfide): 909.5 mVolts
mVolts ([1]; Volume 8.0 of 1.0M BaCl2, ~200 mM sulfide): 908.3 mVolts
mVolts ([1]; Volume 8.5 of 1.0M BaCl2, ~200 mM sulfide): 907.4 mVolts
mVolts ([1]; Volume 9.0 of 1.0M BaCl2, ~200 mM sulfide): 906.8 mVolts
mVolts ([1]; Volume 9.5 of 1.0M BaCl2, ~200 mM sulfide): 905.7 mVolts
mVolts ([1]; Volume 10.0 of 1.0M BaCl2, ~200 mM sulfide): 905.0 mVolts

[Ca+2].[Cl-].[Cl-] [CaCl2]
mVolts ([1]; Volume 0.0 of 1.0M CaCl2, ~200 mM sulfide): 945.1 mVolts
mVolts ([1]; Volume 0.1 of 1.0M CaCl2, ~200 mM sulfide): 939.8 mVolts
mVolts ([1]; Volume 0.3 of 1.0M CaCl2, ~200 mM sulfide): 944.8 mVolts
mVolts ([1]; Volume 0.5 of 1.0M CaCl2, ~200 mM sulfide): 931.6 mVolts
mVolts ([1]; Volume 0.7 of 1.0M CaCl2, ~200 mM sulfide): 931.3 mVolts
mVolts ([1]; Volume 0.9 of 1.0M CaCl2, ~200 mM sulfide): 931.2 mVolts
mVolts ([1]; Volume 1.1 of 1.0M CaCl2, ~200 mM sulfide): 931.1 mVolts
mVolts ([1]; Volume 1.4 of 1.0M CaCl2, ~200 mM sulfide): 930.7 mVolts
mVolts ([1]; Volume 1.6 of 1.0M CaCl2, ~200 mM sulfide): 927.1 mVolts
mVolts ([1]; Volume 1.8 of 1.0M CaCl2, ~200 mM sulfide): 925.7 mVolts
mVolts ([1]; Volume 2.0 of 1.0M CaCl2, ~200 mM sulfide): 924.8 mVolts
mVolts ([1]; Volume 2.2 of 1.0M CaCl2, ~200 mM sulfide): 923.8 mVolts
mVolts ([1]; Volume 2.4 of 1.0M CaCl2, ~200 mM sulfide): 923.0 mVolts
mVolts ([1]; Volume 2.6 of 1.0M CaCl2, ~200 mM sulfide): 921.0 mVolts
mVolts ([1]; Volume 2.8 of 1.0M CaCl2, ~200 mM sulfide): 920.2 mVolts
mVolts ([1]; Volume 3.0 of 1.0M CaCl2, ~200 mM sulfide): 917.5 mVolts
mVolts ([1]; Volume 3.3 of 1.0M CaCl2, ~200 mM sulfide): 916.8 mVolts
mVolts ([1]; Volume 3.4 of 1.0M CaCl2, ~200 mM sulfide): 915.6 mVolts
mVolts ([1]; Volume 3.6 of 1.0M CaCl2, ~200 mM sulfide): 914.9 mVolts
mVolts ([1]; Volume 3.8 of 1.0M CaCl2, ~200 mM sulfide): 914.3 mVolts
mVolts ([1]; Volume 4.0 of 1.0M CaCl2, ~200 mM sulfide): 913.7 mVolts
mVolts ([1]; Volume 4.2 of 1.0M CaCl2, ~200 mM sulfide): 913.1 mVolts
mVolts ([1]; Volume 4.4 of 1.0M CaCl2, ~200 mM sulfide): 912.6 mVolts
mVolts ([1]; Volume 4.6 of 1.0M CaCl2, ~200 mM sulfide): 912.1 mVolts
mVolts ([1]; Volume 4.8 of 1.0M CaCl2, ~200 mM sulfide): 911.0 mVolts
mVolts ([1]; Volume 5.0 of 1.0M CaCl2, ~200 mM sulfide): 910.1 mVolts
mVolts ([1]; Volume 5.2 of 1.0M CaCl2, ~200 mM sulfide): 909.9 mVolts
mVolts ([1]; Volume 5.4 of 1.0M CaCl2, ~200 mM sulfide): 909.5 mVolts
mVolts ([1]; Volume 5.6 of 1.0M CaCl2, ~200 mM sulfide): 908.9 mVolts
mVolts ([1]; Volume 5.8 of 1.0M CaCl2, ~200 mM sulfide): 908.5 mVolts
mVolts ([1]; Volume 6.0 of 1.0M CaCl2, ~200 mM sulfide): 908.0 mVolts
mVolts ([1]; Volume 6.5 of 1.0M CaCl2, ~200 mM sulfide): 906.7 mVolts
mVolts ([1]; Volume 7.0 of 1.0M CaCl2, ~200 mM sulfide): 905.5 mVolts
mVolts ([1]; Volume 7.5 of 1.0M CaCl2, ~200 mM sulfide): 904.5 mVolts
mVolts ([1]; Volume 8.0 of 1.0M CaCl2, ~200 mM sulfide): 903.3 mVolts
mVolts ([1]; Volume 8.5 of 1.0M CaCl2, ~200 mM sulfide): 902.3 mVolts
mVolts ([1]; Volume 9.0 of 1.0M CaCl2, ~200 mM sulfide): 901.3 mVolts
mVolts ([1]; Volume 9.5 of 1.0M CaCl2, ~200 mM sulfide): 900.3 mVolts
mVolts ([1]; Volume 10.0 of 1.0M CaCl2, ~200 mM sulfide): 899.6 mVolts

[O]=[Mn]=[O] [MnO2(IV)]
mVolts ([2]; Vol 1M Na2S 0.0): 597.2 mVolts
mVolts ([2]; Vol 1M Na2S 0.1): 672.5 mVolts
mVolts ([2]; Vol 1M Na2S 0.2): 679.4 mVolts
mVolts ([2]; Vol 1M Na2S 0.3): 688.1 mVolts
mVolts ([2]; Vol 1M Na2S 0.4): 698.0 mVolts
mVolts ([2]; Vol 1M Na2S 0.5): 699.4 mVolts
mVolts ([2]; Vol 1M Na2S 0.7): 709.7 mVolts
mVolts ([2]; Vol 1M Na2S 0.8): 720.0 mVolts
mVolts ([2]; Vol 1M Na2S 0.9): 728.2 mVolts
mVolts ([2]; Vol 1M Na2S 1.0): 738.1 mVolts
mVolts ([2]; Vol 1M Na2S 1.1): 732.5 mVolts
mVolts ([2]; Vol 1M Na2S 1.2): 737.4 mVolts
mVolts ([2]; Vol 1M Na2S 1.3): 740.0 mVolts
mVolts ([2]; Vol 1M Na2S 1.4): 749.2 mVolts
mVolts ([2]; Vol 1M Na2S 1.5): 742.7 mVolts
mVolts ([2]; Vol 1M Na2S 1.8): 762.4 mVolts
mVolts ([2]; Vol 1M Na2S 2.1): 776.0 mVolts
mVolts ([2]; Vol 1M Na2S 2.4): 784.3 mVolts
mVolts ([2]; Vol 1M Na2S 2.6): 791.9 mVolts
mVolts ([2]; Vol 1M Na2S 2.8): 796.6 mVolts
mVolts ([2]; Vol 1M Na2S 3.0): 803.1 mVolts
mVolts ([2]; Vol 1M Na2S 3.2): 806.0 mVolts
mVolts ([2]; Vol 1M Na2S 3.5): 817.4 mVolts
mVolts ([2]; Vol 1M Na2S 3.7): 817.0 mVolts
mVolts ([2]; Vol 1M Na2S 3.9): 816.5 mVolts
mVolts ([2]; Vol 1M Na2S 4.1): 817.2 mVolts
